Data: ChEMBL document CHEMBL1201862, “PubChem BioAssay data set” (2004)
The source made the active and inactive calls.

Columns and labels:
Prothrombin = Prothrombin (Homo sapiens, UniProt P00734); test: Thrombin 1536 HTS Dose Response Confirmation. [Related pubchem assays: 1046 (Thrombin 1536 HTS; hits were confirmed in this assay)]; type: functional
Nonstructural protein 1 = Nonstructural protein 1 (Influenza A virus, UniProt Q194T2); type: functional, Influenza A virus (A/California/07/2009(H1N1))
Chain of Nonstructural protein 1 (Q194T2 whole entry): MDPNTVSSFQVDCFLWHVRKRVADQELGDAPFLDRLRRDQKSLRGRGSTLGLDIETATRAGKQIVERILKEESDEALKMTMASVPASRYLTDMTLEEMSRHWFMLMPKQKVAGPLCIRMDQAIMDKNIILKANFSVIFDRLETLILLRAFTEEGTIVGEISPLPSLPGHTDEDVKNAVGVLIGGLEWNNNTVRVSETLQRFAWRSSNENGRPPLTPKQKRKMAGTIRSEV

INS1 = test: INS-1E survival protection against cytokine death – cell-based, luminescence, retest, dose response (AID 449756); type: functional; conditions: Rattus norvegicus;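 further: cell death triggered by IL-1 beta plus TNF-alpha plus IFN-gamma mixture; protective hits raise ATP signal compared with cytokine alone wells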
HEK293 = test: EBV LMP1 TES2 canonical NF-kB signalling blockers – cell-based, HEK293, luciferase, cherry-pick, dose response (AID 588343); type: functional; conditions: Homo sapiens
P388/ADR = test: cells; type: functional; conditions: Mus musculus
SN12K1 = test: cells; type: functional; conditions: Homo sapiens
P388 = test: cells; type: functional; conditions: Mus musculus
[1] = target: T1, Voltage-gated N-type calcium channel alpha-1B subunit/Amyloid beta A4 precursor protein-binding family A member 1 (Homo sapiens, UniProt Q00975+Q02410); type: protein assay
SUMO-activating enzyme [2] = target: T2, SUMO-activating enzyme (Homo sapiens, UniProt Q9UBT2); test: blockers of SAE1/SAE2–UBC9 SUMO transfer – biochemical, HTRF, uHTS, primary screen (AID 2006); type: protein-complex assay
T2 sequence (Q9UBE0 whole entry): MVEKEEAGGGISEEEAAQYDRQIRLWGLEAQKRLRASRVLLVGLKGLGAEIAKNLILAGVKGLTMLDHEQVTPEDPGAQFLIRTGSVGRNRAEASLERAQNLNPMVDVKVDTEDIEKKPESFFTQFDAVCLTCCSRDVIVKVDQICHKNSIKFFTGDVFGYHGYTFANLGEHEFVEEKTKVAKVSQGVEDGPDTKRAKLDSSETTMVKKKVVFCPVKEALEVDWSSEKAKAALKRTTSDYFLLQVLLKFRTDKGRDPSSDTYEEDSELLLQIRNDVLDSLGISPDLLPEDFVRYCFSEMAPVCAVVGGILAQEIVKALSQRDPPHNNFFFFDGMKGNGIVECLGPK
T2 sequence (Q9UBT2 whole entry): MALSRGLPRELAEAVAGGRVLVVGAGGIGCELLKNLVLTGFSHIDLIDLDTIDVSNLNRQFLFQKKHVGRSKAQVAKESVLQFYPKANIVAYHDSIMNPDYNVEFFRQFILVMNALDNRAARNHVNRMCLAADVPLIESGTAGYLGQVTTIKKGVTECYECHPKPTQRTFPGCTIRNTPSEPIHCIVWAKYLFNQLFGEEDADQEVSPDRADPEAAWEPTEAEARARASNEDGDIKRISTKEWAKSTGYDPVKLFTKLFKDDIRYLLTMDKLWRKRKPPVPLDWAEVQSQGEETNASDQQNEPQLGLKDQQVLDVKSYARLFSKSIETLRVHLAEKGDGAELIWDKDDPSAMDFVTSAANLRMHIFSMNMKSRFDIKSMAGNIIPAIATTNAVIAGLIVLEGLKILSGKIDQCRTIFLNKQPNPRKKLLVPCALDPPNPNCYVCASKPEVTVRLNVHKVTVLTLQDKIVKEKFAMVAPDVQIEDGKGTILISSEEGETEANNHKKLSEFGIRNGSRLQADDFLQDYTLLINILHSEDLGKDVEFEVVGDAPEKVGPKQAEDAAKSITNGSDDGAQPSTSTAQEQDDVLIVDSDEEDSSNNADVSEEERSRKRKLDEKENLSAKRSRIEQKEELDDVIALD

[3] = target: T1, Voltage-gated N-type calcium channel alpha-1B subunit/Amyloid beta A4 precursor protein-binding family A member 1; type: protein assay; remark: listed apart in the source
SUMO-activating enzyme [4] = target: T2, SUMO-activating enzyme; test: blockers of UBC9-mediated SUMO conjugation – biochemical, AlphaScreen, SUMOylation inhibitor project, confirmation (AID 2018); type: functional
Vero = test: viability of Vero cells under compound – cytotoxicity control for flavivirus capping enzyme inhibitors (AID 588742); type: functional; conditions: Chlorocebus sabaeus
[5] = target: T3, Calpain-2 catalytic subunit (Sus scrofa, UniProt P43367); test: m-calpain protease blockers, concentration series – biochemical, fluorogenic peptide substrate, dose response (AID 1420); type: functional
T3 sequence (P43367 whole entry): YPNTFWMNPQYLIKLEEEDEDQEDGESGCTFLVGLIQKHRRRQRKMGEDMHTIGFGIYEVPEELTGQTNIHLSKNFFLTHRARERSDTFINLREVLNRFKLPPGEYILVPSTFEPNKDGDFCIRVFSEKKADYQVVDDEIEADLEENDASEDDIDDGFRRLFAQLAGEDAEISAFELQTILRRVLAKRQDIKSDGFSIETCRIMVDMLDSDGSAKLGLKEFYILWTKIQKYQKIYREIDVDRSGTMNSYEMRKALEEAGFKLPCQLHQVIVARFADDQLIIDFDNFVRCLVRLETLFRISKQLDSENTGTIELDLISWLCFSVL

[6] = target: T4, Polyadenylate-binding protein 1 (Homo sapiens, UniProt P11940); test: MLLE binding blockers, Cy5 peptide tracer – biochemical, fluorescence polarization, Cy5-PAM2 peptide, secondary, miRNA deadenylation inhibitor project, dose response (AID 602260); type: functional; conditions: read-out: IC50_Mean
T4 sequence (P11940 whole entry, the tested form may be a part): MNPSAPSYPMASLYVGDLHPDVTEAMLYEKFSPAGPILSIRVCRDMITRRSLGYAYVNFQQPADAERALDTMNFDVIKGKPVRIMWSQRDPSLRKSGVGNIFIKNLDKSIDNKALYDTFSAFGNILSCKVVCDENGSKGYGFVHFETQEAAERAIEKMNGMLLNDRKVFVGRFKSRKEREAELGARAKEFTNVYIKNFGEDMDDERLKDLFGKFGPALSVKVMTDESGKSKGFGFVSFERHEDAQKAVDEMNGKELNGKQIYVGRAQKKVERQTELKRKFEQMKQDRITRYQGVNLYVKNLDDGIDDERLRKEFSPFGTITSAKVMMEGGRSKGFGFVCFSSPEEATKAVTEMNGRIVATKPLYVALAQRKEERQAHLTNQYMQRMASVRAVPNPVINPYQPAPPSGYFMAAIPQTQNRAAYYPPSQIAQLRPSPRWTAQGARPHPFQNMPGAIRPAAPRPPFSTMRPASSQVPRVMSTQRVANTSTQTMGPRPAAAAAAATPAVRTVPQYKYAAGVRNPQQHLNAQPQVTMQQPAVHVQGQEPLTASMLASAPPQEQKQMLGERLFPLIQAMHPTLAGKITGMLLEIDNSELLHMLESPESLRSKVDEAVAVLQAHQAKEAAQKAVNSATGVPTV

[7] = target: T4, Polyadenylate-binding protein 1; test: MLLE domain peptide-binding blockers, IC50 – biochemical, fluorescence polarization, FITC-PAM2 peptide, dose response (AID 602259); type: functional; conditions: read-out: IC50_Mean
[8] = target: Peroxisome proliferator-activated receptor gamma/Nuclear receptor corepressor 2 (Homo sapiens, UniProt P37231+Q9Y618); test: Counterscreen for NR2E3 inverse agonists: TR-FRET-based biochemical high throughput dose response assay to identify inverse agonists of the interaction between peroxisome proliferator-activated receptor gamma (PPARg) and nuclear receptor co-repressor 2 (NCOR2).; type: functional
Chain of Peroxisome proliferator-activated receptor gamma/Nuclear receptor corepressor 2 (P37231 whole entry): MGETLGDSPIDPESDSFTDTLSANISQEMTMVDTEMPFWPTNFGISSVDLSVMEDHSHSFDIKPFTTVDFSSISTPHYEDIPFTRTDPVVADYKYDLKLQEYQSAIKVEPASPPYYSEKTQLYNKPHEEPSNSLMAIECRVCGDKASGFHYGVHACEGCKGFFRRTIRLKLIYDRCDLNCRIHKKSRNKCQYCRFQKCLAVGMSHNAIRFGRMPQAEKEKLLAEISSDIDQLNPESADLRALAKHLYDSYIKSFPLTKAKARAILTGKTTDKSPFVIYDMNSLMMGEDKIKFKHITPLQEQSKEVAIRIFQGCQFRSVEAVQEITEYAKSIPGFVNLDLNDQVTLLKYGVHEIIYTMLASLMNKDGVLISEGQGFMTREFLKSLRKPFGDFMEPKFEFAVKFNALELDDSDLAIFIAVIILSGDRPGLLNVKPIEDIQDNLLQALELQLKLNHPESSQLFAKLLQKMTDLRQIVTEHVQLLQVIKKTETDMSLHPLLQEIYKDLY
Chain of Peroxisome proliferator-activated receptor gamma/Nuclear receptor corepressor 2 (Q9Y618 whole entry): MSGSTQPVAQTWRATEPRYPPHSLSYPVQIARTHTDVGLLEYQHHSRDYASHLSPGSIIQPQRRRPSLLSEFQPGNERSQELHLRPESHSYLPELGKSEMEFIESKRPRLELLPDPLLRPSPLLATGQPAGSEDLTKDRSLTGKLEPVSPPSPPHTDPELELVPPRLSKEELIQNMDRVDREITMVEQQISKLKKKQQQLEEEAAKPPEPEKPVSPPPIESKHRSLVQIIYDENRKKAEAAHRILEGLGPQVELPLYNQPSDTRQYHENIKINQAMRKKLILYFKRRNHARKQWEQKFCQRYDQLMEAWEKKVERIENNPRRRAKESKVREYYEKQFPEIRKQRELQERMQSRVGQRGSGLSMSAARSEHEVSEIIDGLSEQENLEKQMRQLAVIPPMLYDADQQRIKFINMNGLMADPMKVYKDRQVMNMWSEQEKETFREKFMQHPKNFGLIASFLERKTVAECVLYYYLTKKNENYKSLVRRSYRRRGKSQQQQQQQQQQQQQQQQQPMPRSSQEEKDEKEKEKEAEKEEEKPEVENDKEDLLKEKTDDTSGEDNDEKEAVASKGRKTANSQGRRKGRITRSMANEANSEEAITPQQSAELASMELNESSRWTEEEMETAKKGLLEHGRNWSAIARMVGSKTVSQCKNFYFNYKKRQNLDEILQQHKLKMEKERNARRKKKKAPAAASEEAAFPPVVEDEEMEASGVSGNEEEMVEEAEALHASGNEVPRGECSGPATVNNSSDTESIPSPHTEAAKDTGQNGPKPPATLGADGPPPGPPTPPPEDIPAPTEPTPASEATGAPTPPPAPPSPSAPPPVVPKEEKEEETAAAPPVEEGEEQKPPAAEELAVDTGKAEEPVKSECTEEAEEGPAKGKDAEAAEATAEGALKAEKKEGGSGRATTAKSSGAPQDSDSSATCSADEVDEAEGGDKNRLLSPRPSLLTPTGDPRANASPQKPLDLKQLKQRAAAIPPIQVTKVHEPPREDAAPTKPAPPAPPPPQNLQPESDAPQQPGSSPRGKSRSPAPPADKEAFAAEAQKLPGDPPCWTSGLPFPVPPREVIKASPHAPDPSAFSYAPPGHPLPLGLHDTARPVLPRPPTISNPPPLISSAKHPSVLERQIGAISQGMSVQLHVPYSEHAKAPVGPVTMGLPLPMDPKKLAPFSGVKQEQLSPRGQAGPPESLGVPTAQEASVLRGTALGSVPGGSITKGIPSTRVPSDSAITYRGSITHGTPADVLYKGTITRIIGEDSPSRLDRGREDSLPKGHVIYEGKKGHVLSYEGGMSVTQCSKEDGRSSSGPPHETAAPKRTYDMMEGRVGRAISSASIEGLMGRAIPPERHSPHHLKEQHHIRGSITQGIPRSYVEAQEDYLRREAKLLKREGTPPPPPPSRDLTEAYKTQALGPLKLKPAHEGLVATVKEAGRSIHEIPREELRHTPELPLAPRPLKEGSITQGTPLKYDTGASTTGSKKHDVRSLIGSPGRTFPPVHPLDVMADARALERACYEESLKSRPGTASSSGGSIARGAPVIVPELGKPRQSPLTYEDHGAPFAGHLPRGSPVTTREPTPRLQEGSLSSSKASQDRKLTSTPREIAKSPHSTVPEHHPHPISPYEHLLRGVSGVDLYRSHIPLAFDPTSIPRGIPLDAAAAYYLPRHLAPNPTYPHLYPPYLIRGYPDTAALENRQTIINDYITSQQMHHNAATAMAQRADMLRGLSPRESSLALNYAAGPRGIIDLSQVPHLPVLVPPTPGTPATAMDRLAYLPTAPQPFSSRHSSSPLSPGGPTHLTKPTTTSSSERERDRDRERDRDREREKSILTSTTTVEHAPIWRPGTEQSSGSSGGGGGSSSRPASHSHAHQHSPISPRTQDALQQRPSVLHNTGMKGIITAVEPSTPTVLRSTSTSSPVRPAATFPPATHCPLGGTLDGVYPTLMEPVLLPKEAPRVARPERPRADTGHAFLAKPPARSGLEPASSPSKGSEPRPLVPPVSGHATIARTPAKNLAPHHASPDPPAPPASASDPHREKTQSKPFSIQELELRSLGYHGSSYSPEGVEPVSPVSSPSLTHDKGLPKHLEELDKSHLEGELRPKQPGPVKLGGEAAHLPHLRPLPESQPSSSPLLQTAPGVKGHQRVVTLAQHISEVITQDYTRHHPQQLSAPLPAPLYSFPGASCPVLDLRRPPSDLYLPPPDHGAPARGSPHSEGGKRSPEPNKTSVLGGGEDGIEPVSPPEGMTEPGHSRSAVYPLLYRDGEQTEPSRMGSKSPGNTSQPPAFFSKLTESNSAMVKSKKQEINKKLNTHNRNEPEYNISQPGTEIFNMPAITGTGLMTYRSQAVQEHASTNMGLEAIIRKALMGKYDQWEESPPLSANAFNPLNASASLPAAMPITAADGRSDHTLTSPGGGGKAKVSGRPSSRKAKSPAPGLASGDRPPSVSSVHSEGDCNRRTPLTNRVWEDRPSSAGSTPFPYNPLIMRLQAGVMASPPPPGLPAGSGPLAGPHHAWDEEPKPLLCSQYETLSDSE

[9] = target: Photoreceptor-specific nuclear receptor (Homo sapiens, UniProt Q9Y5X4); test: ligands suppressing NR2E3 nuclear receptor activity – biochemical, TR-FRET, dose response (AID 463256); type: functional
[10] = target: T5, Corticotropin-releasing factor receptor 2/Corticotropin-releasing factor-binding protein (Homo sapiens, UniProt P24387+Q13324); test: activators of CRF receptor 2 with binding protein – uHTS hits, confirmation (AID 602473); type: functional; conditions: read-out: EC50_Mean
T5 sequence (Q13324 whole entry): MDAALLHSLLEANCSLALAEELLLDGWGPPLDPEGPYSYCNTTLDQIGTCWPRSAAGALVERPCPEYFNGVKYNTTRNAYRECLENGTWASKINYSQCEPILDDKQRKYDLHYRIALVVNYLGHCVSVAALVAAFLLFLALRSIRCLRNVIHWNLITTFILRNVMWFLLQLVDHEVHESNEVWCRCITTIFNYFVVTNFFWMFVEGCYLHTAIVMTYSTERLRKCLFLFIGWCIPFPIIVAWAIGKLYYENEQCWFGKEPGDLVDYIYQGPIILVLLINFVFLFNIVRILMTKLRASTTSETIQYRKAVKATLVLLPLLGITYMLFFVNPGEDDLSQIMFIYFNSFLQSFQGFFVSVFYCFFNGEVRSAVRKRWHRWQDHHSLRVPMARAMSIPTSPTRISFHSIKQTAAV
T5 sequence (P24387 whole entry): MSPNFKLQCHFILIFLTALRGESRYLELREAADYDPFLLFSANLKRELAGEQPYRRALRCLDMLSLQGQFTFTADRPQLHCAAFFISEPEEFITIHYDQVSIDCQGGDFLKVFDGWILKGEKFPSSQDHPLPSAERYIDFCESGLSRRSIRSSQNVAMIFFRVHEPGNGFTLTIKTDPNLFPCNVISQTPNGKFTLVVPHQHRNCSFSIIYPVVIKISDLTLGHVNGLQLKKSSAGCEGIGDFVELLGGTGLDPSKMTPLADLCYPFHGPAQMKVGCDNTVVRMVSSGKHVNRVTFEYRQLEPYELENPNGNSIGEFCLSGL

[11] = target: T5, Corticotropin-releasing factor receptor 2/Corticotropin-releasing factor-binding protein; test: Dose Response confirmation of uHTS hits for small molecule antagonists of the CRF-binding protein and CRF-R2 receptor complex.; type: functional; conditions: read-out: IC50_Mean
[12] = Dd2 malaria parasite growth inhibition potency – SYBR Green, dry powder samples, dose response (AID 1159566); type: functional, cell-based;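 further: potency for growth inhibition with lower SYBR green DNA signal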
[13] = P. falciparum Dd2 growth inhibitors, dose response, SYBR Green, cherry-picked samples (AID 1159567); type: functional, cell-based
[14] = growth inhibition of yeast DHODH-expressing 3D7 parasites – SYBR Green, dry powder samples, dose response (AID 1159570); type: functional, cell-based;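 further: parasite growth measured after 72 hours of compound exposure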
[15] = growth inhibition of PfATP4-mutant resistant parasites – NITD609-resistant line, SYBR Green, dry powder, dose response (AID 1159571); type: functional, cell-based;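 further: parasites synchronized at ring stage by sorbitol before testing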
Large T antigen = Large T antigen (Simian virus 40, UniProt P03070); type: functional, Betapolyomavirus macacae;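 further: Confirmatory-stage PubChem screen for compounds that inhibit SV40 T antigen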

Compound: O=C(c1ccco1)n1nc(-c2cccnc2)nc1NCc1ccco1
- IC50 (Prothrombin): 0.134 µM (active)

Compound: COc1ccc(Cc2nnc(N/N=C/c3ccc(O)cc3)nc2O)cc1OC
- IC50 (Nonstructural protein 1): 1.19 µM (active)
- AC50 (INS1): 0.946 µM (active)
- AC50 (HEK293): 4.42 µM (active)

Compound: Cc1ccc(N2Cc3c(ccc4ccccc34)OP2(=O)Oc2ccc(Cl)c(C)c2)cc1 (stereo not drawn)
- GI50 (P388/ADR): 7.45 µM (inactive)
- GI50 (SN12K1): > 77.8 µM (inactive)
- GI50 (P388): 4.75 µM (inactive)

Compound: C=CCNC(=O)/C(C#N)=C\c1cc(Cl)c(O)c(OCC)c1
- IC50 (Prothrombin): > 50 µM (not active)

Compound: O=C(Nc1ccc2oc(-c3cccc4ccccc34)nc2c1)c1nnc[nH]1
- IC50 [1]: 2.92 µM (active)
- IC50 (SUMO-activating enzyme [2]): 11.8 µM (active)
- IC50 [3]: > 50 µM (inactive)
- IC50 (SUMO-activating enzyme [4]): 3.45 µM (active)

Compound: COc1ccc(S(=O)(=O)N(C(=O)c2ccco2)c2cc3sc(=O)oc3c3ccccc23)cc1
- CC50 (Vero): 27.7 µM (active)
- AC50 (INS1): 4.56 µM (active)

Compound: Cc1ccc(Nc2c([N+](=O)[O-])ccc3c2=NC2(CCCCC2)N=3)cc1
- IC50 [5]: 1.58 µM (not active)
- IC50 (Nonstructural protein 1): 17.4 µM (active)
- IC50 [6]: > 66 µM (inactive)
- IC50 [7]: > 66 µM (inactive)

Compound: COc1cc(NC(=O)CSc2nc(C3CC3)nc3ccccc23)cc(OC)c1
- IC50 [8]: 5.56 µM (active)
- IC50 [9]: 5.35 µM (active)

Compound: Cc1c(Br)ccc(NC(=O)Cn2nc(-c3cccs3)ccc2=O)c1C
- IC50 [8]: 7.73 µM (active)
- IC50 [9]: 7.42 µM (active)

Compound: Nc1ccc(S(=O)(=O)Nc2ccc(Cl)nn2)cc1 [SULFACHLORPYRIDAZINE]
- EC50 [10]: > 53 µM (inactive)
- IC50 [11]: > 47.1 µM (inactive)

Compound: S=P1(N2CCCCC2)Oc2ccc3ccccc3c2-c2c(ccc3ccccc23)O1
- GI50 (P388/ADR): > 100 µM (inactive)
- GI50 (SN12K1): > 61.8 µM (inactive)
- GI50 (P388): 48.4 µM (inactive)

Compound: COc1ccc2c3c(n(C)c2c1)[C@@H](CO)N(C(=O)c1ccccc1)CC31CCN(C(=O)c2ccccc2)CC1
- AC50 [12]: 1.04 µM (active)
- AC50 [13]: 2.56 µM (active)
- AC50 [14]: 2.28 µM (active)
- AC50 [15]: 1.55 µM (active)

Compound: C(=C/c1nc2ccccc2o1)/c1ccc2c(c1)OCO2
- GI50 (P388/ADR): 3.99 µM (inactive)
- GI50 (SN12K1): 5.62 µM (inactive)
- GI50 (P388): 3.52 µM (inactive)

Compound: COc1ccc(OCC(C)(C)O)cc1
- GI50 (P388/ADR): 1.31 µM (inactive)
- GI50 (SN12K1): > 100 µM (inactive)
- GI50 (P388): 38.2 µM (inactive)

Compound: COc1cc(/C=N/NC(=O)c2ccc3c(c2)OCCO3)cc(Cl)c1O
- IC50 (Large T antigen): 22.7 µM (active)
